Laboratory results taken from paper PMC3478282, “Probing the Putative Active Site of YjdL: An Unusual Proton-Coupled Oligopeptide Transporter from E. coli” (PLoS ONE, 2012).
Residue numbers refer to the chain shown, from its start. Residues, ends and D or L forms follow the SMILES beside them.

Experiments:
Type in all cases: cell-based, E. coli
[1] = molecular target: T1, YjdL Tyr58Phe (Escherichia coli, UniProt P39276, Y58F); experiment: β-Ala-Lys(AMCA) uptake and inhibition assay, YjdL Tyr58Phe; details: for IC50: 0.5 mM β-Ala-Lys(AMCA), 15 min incubation, pH 6.5, ±SEM, n≥3, read-out: IC50 (inhibition of β-Ala-Lys(AMCA) uptake), Tyr58Phe b
T1 construct: expressed in transfected cells; host or cells: E. coli BL21(DE3)pLysS, pTTQ18-yjdL mutant (QuikChange)
T1 sequence (P39276 1-485 Y58F): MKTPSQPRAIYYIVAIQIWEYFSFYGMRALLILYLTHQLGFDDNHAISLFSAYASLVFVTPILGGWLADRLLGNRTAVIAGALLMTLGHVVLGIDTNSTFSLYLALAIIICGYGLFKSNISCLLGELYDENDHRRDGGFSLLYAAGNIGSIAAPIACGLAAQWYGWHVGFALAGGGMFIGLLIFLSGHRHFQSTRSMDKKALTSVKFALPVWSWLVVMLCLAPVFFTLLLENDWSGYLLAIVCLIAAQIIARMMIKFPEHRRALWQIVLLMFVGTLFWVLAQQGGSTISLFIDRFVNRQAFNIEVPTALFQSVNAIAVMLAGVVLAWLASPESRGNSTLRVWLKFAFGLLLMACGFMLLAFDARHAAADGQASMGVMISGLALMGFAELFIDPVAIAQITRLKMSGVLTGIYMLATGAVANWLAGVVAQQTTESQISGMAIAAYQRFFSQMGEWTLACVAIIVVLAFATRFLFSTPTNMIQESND
Protocol: (§1) Plasmids were transformed into E. coli BL21(DE3)pLysS cells by heat shock and transformants were selected on agar plates containing 100 µg/mL ampicillin and 34 µg/mL chloramphenicol. Single transformants were inoculated into 2 mL LB-media with antibiotics as above and grown overnight. The cultures were diluted 1∶50 in 5 mL LB-media with antibiotics as above, and at an OD600 of 0.5–0.8 protein expression was induced by the addition of 1 mM isopropyl β-D-1-thiogalactopyranoside (IPTG). The cells were harvested after three hours of induction by centrifugation and resuspended in uptake buffer (50 mM MES pH 6.5, 140 mM NaCl, 5.4 mM KCl, 1.8 mM CaCl2, 0.8 mM MgSO4, and 5 mM glucose).
(§2) Uptake assays were performed as previously described, [20]. In a final assay volume of 100 µL; 0.2 mM β-Ala-Lys-N-7-amino-4-methylcoumarin-3-acetic acid (β-Ala-Lys(AMCA), Biotrend) (10 µL) and various concentrations of ligands (purchased from Bachem or Sigma-Aldrich) or uptake buffer (50 µL) were incubated with bacterial cell suspension (OD600 = 10, 40 µL) at 37°C. After 5 min, the uptake was stopped by addition of 500 µL ice-cold uptake buffer followed by immediate centrifugation and washing twice in ice-cold uptake buffer. Finally the cell pellet was resuspended in 100 µL uptake buffer, and the uptake was quantified by fluorescence measurements (excitation at 340 nm and emission at 460 nm) on a Safire 2 fluorimeter. Non-specific uptake was measured as described above on IPTG-induced E. coli BL21(DE3)pLysS cells harboring the empty pTTQ18 vector. All uptake assay experiments were reproduced at least three times independently and data analyses were performed using GraphPad Prism ver. 5.

[2] = molecular target: T2, YjdL Tyr113Phe (Escherichia coli, UniProt P39276, Y113F); experiment: β-Ala-Lys(AMCA) uptake and inhibition assay, YjdL Tyr113Phe; details: for IC50: 0.2 mM β-Ala-Lys(AMCA), 5 min incubation, pH 6.5, ±SEM, n≥3
T2 construct: expressed in transfected cells; host or cells: E. coli BL21(DE3)pLysS, pTTQ18-yjdL mutant (QuikChange)
T2 sequence (P39276 1-485 Y113F): T1 sequence (P39276 1-485 Y58F) with F58Y, Y113F
Protocol: as §1, §2

[3] = molecular target: T3, YjdL Trp278Phe (Escherichia coli, UniProt P39276, W278F); experiment: β-Ala-Lys(AMCA) uptake and inhibition assay, YjdL Trp278Phe; details: 0.2 mM β-Ala-Lys(AMCA), 5 min incubation, pH 6.5; ±SEM, n≥3
T3 construct: host or cells: E. coli BL21(DE3)pLysS
T3 sequence (P39276 1-485 W278F): T1 sequence (P39276 1-485 Y58F) with F58Y, W278F
Protocol: as §1, §2

[4] = molecular target: T4, YjdL Tyr25Phe (Escherichia coli, UniProt P39276, Y25F); experiment: β-Ala-Lys(AMCA) uptake and inhibition assay, YjdL Tyr25Phe; details: for IC50: 0.2 mM β-Ala-Lys(AMCA), 5 min incubation, pH 6.5, ±SEM, n≥3
T4 construct: expressed in transfected cells; host or cells: E. coli BL21(DE3)pLysS, pTTQ18-yjdL mutant (QuikChange)
T4 sequence (P39276 1-485 Y25F): T1 sequence (P39276 1-485 Y58F) with Y25F, F58Y
Protocol: as §1, §2

[5] = 0.2 mM, 5 min, pH 6.5 (Figure 3)

In the case of `C[C@H](N)C(=O)N[C@@H](C)C(=O)O` [Ala-Ala] (H-Ala-Ala-OH), the IC50 [1] is reported as 28100 ± 5000 µM, the IC50 [2] is reported as 1900 ± 100 µM and the IC50 [3] is reported as 9900 ± 1000 µM. For the same molecule, the IC50 [4] was greater than 50000 µM.

With `C[C@H](N)C(=O)N[C@@H](CCCCN)C(=O)O` [Ala-Lys] (H-Ala-Lys-OH) the IC50 [1] was greater than 50000 µM, the IC50 [2] was 340 ± 40 µM and the IC50 [3] was 380 µM. It also gave an IC50 [4] of 400 ± 80 µM.

`C[C@H](NC(=O)[C@@H](N)Cc1ccc(O)cc1)C(=O)O` [Tyr-Ala] was tested, and the IC50 [1] was 24100 ± 2800 µM, the IC50 [2] was 1300 ± 300 µM and the IC50 [3] was 2800 ± 400 µM. The IC50 [4] was 33700 ± 3900 µM.

With “β-Ala-Lys-N-7-amino-4-methylcoumarin-3-acetic acid [β-Ala-Lys(AMCA)]” the “β-Ala-Lys(AMCA) uptake level, YjdL Tyr58Phe” value [1, 5] was 7%, the “increase of β-Ala-Lys(AMCA) uptake, YjdL Tyr113Phe” value [2, 5] was roughly 2 fold and the “β-Ala-Lys(AMCA) uptake level, YjdL Tyr25Phe” value [4, 5] was 27%.
